{"source": "patent US11534457B2", "about": "“Use of dextran sulfate” (priority 2017, dated 2022)", "key": {"[1]": {"system": "human primary cell-based systems", "experiment": "BioMAP Diversity PLUS panel (whole panel, profile and similarity analysis)", "from_the_text": "In this study LMW-DS was characterized by profiling in the BioMAP® Diversity PLUS panel. The BioMAP® panel consists of human primary cell-based systems designed to model different aspects of the human body in an in vitro format. The 12 systems in the BioMAP® Diversity PLUS panel (Table 32) allow test agent characterization in an unbiased way across a broad set of systems modeling various human disease states. The BioMA®P systems are constructed with one or more primary cell types from healthy human donors, with stimuli, such as cytokines or growth factors, added to capture relevant signaling networks that naturally occur in human tissue or pathological conditions. Vascular biology is modeled in both a Th1 (3C system) and a Th2 (4H system) inflammatory environment, as well as in a Th1 inflammatory state specific to arterial smooth muscle cells (CASM3C system). Additional systems recapitulate aspects of the systemic immune response including monocyte-driven Th1 inflammation (LPS system) or T cell stimulation (SAg system), chronic Th1 inflammation driven by macrophage activation (IMphg system) and the T cell-dependent activation of B cells that occurs in germinal centers (BT system). The BE3C system (Th1) and the BF4T system (Th2) represent airway inflammation of the lung, while the MyoF system models myofibroblast-lung tissue remodeling. Lastly, skin biology is addressed in the KF3CT system modeling Th1 cutaneous inflammation and the HDF3CGF system modeling wound healing.\nEach test agent generates a signature BioMAP® profile that is created from the changes in protein biomarker readouts within individual system environments. Biomarker readouts (7-17 per system) are selected for therapeutic and biological relevance, are predictive for disease outcomes or specific drug effects and are validated using agents with known mechanism of action (MoA). Each readout is measured quantitatively by immune-based methods that detect protein, e.g., ELISA, or functional assays that measure proliferation and viability. BioMAP® readouts are diverse and include cell surface receptors, cytokines, chemokines, matrix molecules and enzymes. In total, the BioMAP® Diversity PLUS panel contains 148 biomarker readouts that capture biological changes that occur within the physiological context of the particular BioMAP® system.\nFour concentrations of LMW-DS (150 nM, 440 nM, 1.3 μM, 4 μM) were investigated in the BioMAP® Diversity PLUS panel by Eurofins.\nHuman primary cells in BioMAP systems are used at early passage (passage 4 or earlier) to minimize adaptation to cell culture conditions and preserve physiological signaling responses. All cells are from a pool of multiple donors (n=2-6), commercially purchased and handled according to the recommendations of the manufacturers. Human blood derived CD14^+ monocytes are differentiated into macrophages in vitro before being added to the /Mphg system. Abbreviations are used as follows: Human umbilical vein endothelial cells (HUVEC), Peripheral blood mononuclear cells (PBMC), Human neonatal dermal fibroblasts (HDFn), B cell receptor (BCR), T cell receptor (TCR) and Toll-like receptor (TLR).\nCell types and stimuli used in each system are as follows: 3C system [HUVEC+(IL-1β, TNFα and IFNγ)], 4H system [HUVEC+(IL-4 and histamine)], LPS system [PBMC and HUVEC+LPS (TLR4 ligand)], SAg system [PBMC and HUVEC+TCR ligands], BT system [CD19^+ B cells and PBMC+(a-IgM and TCR ligands)], BF4T system [bronchial epithelial cells and HDFn+(TNFα and IL-4)], BE3C system [bronchial epithelial cells+(IL-1β, TNFα and IFNγ)], CASM3C system [coronary artery smooth muscle cells+(IL-1β, TNFα and IFNγ)], HDF3CGF system [HDFn+(IL-1β, TNFα, IFNγ, EGF, bFGF and PDGF-BB)], KF3CT system [keratinocytes and HDFn+(IL-1β, TNFα, IFNγ and TGFβ)], MyoF system [differentiated lung myofibroblasts+(TNFα and TGFβ)] and /Mphg system [HUVEC and M1 macrophages+Zymosan (TLR2 ligand)].\nSystems are derived from either single cell types or co-culture systems. […]"}, "[2]": {"system": "human motor neurons", "experiment": "PI staining (DNA content, cell cycle, cell numbers, apoptotic fraction), Acumen cytometry", "assay_type": "cell-based", "conditions": "0.01 and 0.1 mg/ml", "experimental": "The study aims were to evaluate the effect of LMW-DS on cell survival and expression of differentiation proteins in three cell types, cerebral cortical neurons, motor neurons and Schwann cells, using two concentrations 0.01 and 0.1 mg/ml of LMW-DS.\nNeurons were cultured as 40,000 cells per well and Schwann cells 3,000 cells per. Cells were treated after 24 hours. The number of cells per well depended on the growth phenotype, proliferative capacity, etc.\nNeuroBlast was pre-warmed to 37° C. Cells were thawed in a 37° C. water bath for no longer than 2 min. 1 ml of media was gently added drop-wise. Cells were resuspended and transferred to a 15 ml tube containing 9 ml of medium. Cells were centrifuged at 200 relative centrifugal force (RCF) for 5 min. Pellet was resuspended in 5 ml of medium and cells were counted with the Cellometer. 40,000 cells per well were seeded in previously coated 96-well plates. Cells were incubated at 37° C. with 5% CO2. Cells were allowed to settle for 24 hours before drug treatment. After 24 hours NeuroBlast medium was replaced with MotorBlast medium (Lonzo).\nLMW-DS was prepared in the culture media of choice for each cell line and added to the respective wells in the doses 0.01 and 0.1 mg/ml. For cell survival assays cells were analyzed after 24 and 48 hours in eight identical wells/dose/time point. Differentiation and protein expression assay was analyzed after 48 hours, also in octuplicates.\nCells were fixated in the wells. Propidium iodine was used for viability assay. For immunohistochemical analysis, neurons were stained with βIII-tubulin, which is a tubulin specific for neurons. Schwann cells were stained for Myelin Basic Protein (MBP). For the negative controls PBST (0.1% Triton-X-100 in PBS) was applied instead of primary antibodies.\nThe Acumen cytometer allows the direct cytometric analysis of attached cells without prior detachment. […] The protein content of the cells can also be directly measured and expressed as either ‘total protein content’ or ‘mean protein content’."}}, "note": "“Also recorded” adds a separate entry of the source."}
{"substance": "low molecular weight dextran sulfate [LMW-DS]", "values": [{"measurement": "CD69", "setting": "[1]; 150 nM to 4 μM", "result": "increased"}, {"measurement": "EGFR", "setting": "[1]; 150 nM to 4 μM", "result": "increased"}, {"measurement": "Eotaxin 3 (Eot3)", "setting": "[1]; 150 nM to 4 μM", "result": "increased"}, {"measurement": "I-TAC", "setting": "[1]; 150 nM to 4 μM", "result": "decreased"}, {"measurement": "IL-8", "setting": "[1]; 150 nM to 4 μM", "result": "increased"}, {"measurement": "IP-10", "setting": "[1]; 150 nM to 4 μM", "result": "decreased"}, {"measurement": "M-CSF", "setting": "[1]; 150 nM to 4 μM", "result": "decreased"}, {"measurement": "MCP-1", "setting": "[1]; 150 nM to 4 μM", "result": "decreased"}, {"measurement": "MIG", "setting": "[1]; 150 nM to 4 μM", "result": "decreased"}, {"measurement": "MMP-1", "setting": "[1]; 150 nM to 4 μM", "result": "increased"}, {"measurement": "PAI-1", "setting": "[1]; 150 nM to 4 μM", "result": "increased"}, {"measurement": "VCAM-1", "setting": "[1]; 150 nM to 4 μM", "result": "decreased"}, {"measurement": "cytotoxicity for human primary cells", "setting": "[1]; 150 nM to 4 μM", "result": "not cytotoxic; also recorded: noncytotoxic"}, {"measurement": "sTNFα", "setting": "[1]; 150 nM to 4 μM", "result": "decreased"}, {"measurement": "secreted immunoglobulin G (sIgG)", "setting": "[1]; 150 nM to 4 μM", "result": "decreased"}, {"measurement": "thrombomodulin (TM)", "setting": "[1]; 150 nM to 4 μM", "result": "increased"}, {"measurement": "uPAR", "setting": "[1]; 150 nM to 4 μM", "result": "increased"}, {"measurement": "annotated readouts in BioMAP profile", "setting": "[1]; 150 nM, 440 nM, 1.3 μM, 4 μM", "result": 25}, {"measurement": "proliferation of human primary endothelial cells", "setting": "[1]; top concentration only (4 μM)", "result": "modestly and selectively antiproliferative"}, {"measurement": "cell loss in cultures", "setting": "[2]", "result": "major cell loss"}, {"measurement": "number of cells in the G2/M phase (PI content)", "setting": "[2]", "result": "appeared to increase the number of cells in the G2/M phase"}, {"measurement": "proliferation within a population of very small cells", "setting": "[2]", "result": "small increase in proliferation"}]}
